In one assay the test system is TNF-α. Description: TNF-α activity inhibition experiment in LPS-stimulated PBMC (ELISA). It counts as cell-based. Particulars: Homo sapiens, compound 10 nM, LPS 1 ug/ml, 72 hours, read-out: Inhibition rate of TNF-a (%). How it is done:
(§1) All operations of this experiment were carried out according to the conventional experimental process of this kind of experiment at present. Peripheral blood from healthy volunteers was collected by routine standard procedure and cultured in 1640 medium (+10% FBS) to obtain PBMC. After recovery, PBMC was centrifuged and resuspended in serum-free medium. After counting, adjusted the density to be 6.25×10^5/ml; then inoculated 160 ul to a 96-well plate, 1×10^5/well; 20 ul 10× compound and DMSO were added, and incubated for 1 hour in an incubator; then 20 ul 10 XLPS was added resulting the final concentration of 1 ug/ml and incubated in an incubator for 72 hours. Centrifuged the cell plate at 1500 rpm and aspirated 50 ul supernatant according to the ELISA operation. After operating according to the kit, a microplate reader was used to read at 450 nm. The concentration of compound was 10 nM, and DMSO was added as control group. Materials used in this experiment: 96 well plate (Corning, #3599), ELISA kit (Thermo), LPS (Sigma, USA).
Background: ELISA stands for enzyme-linked immunosorbent assay.

Another assay relates to IL-2. The assay can be described thus: IL-2 expression change in anti-human CD3 stimulated PBMC (ELISA). It counts as cell-based. Particulars: compound 10 nM, anti-human CD3 10 ug/ml, 24 hours. How it is done:
as §1, with “plate, 2 holes each,” for “plate,”, “ul 10× anti-human CD3” for “ul 10 XLPS”, “of 10” for “of 1”, “for 24” for “for 72”

Another assay has as its system IFNγ. Description: IFNγ expression change in anti-human CD3 stimulated PBMC (ELISA). Particulars: compound 10 nM, anti-human CD3 10 ug/ml, 24 hours. The class given is cell-based. How it is done: as §1, with “plate, 2 holes each,” for “plate,”, “ul 10× anti-human CD3” for “ul 10 XLPS”, “of 10” for “of 1”, “for 24” for “for 72”, “USA). It was found from the test results of the following table that the compounds of the examples of the present invention could be used to regulate the expression of IFNγ.” for “USA).”

The test system of a further assay is MM.1S cells. Description: Effect of the compound on the proliferation of MM.1S cells (MTS). The note with it: Homo sapiens, MM1.S, 168 h, 7 days, read-out: Cell inhibitory activity (IC50). The class given is cell-based. In short, it runs like this: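 In 1640 medium + 10% FBS, 20,000 cells per well were treated with 5-fold compound dilutions at 0.2% DMSO for 7 days at 37° C., 5% CO2. MTS was read after 3–4 h as OD490−OD690, inhibition was calculated against DMSO and blank wells, and IC50 was fitted; three independent experiments were run.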

The target in another assay is T1, CRBN (Homo sapiens, UniProt Q96SW2).
T1 construct: lyse the blood tumor Mino cells, and centrifuged to obtain a clear cell lysate; endogenous in cells; host or cells: Mino cells (mantle cell lymphoma), lysate
Description: Verification of interaction between compound and CRBN (elution from thalidomide FG beads, Western blotting). The class given is binding. Also on record: dose or concentration left out as unconfirmed. Particulars: Mino cell lysate, 25° C., 15 minutes, Western blotting with CRBN antibody. The text has this:
Studies have shown that lenalidomide immunomodulators in hematological tumor cell lines regulate the activity of CRBN-ubiquitin ligase complex by binding to CRBN, selectively induce ubiquitination and degradation of transcription factors IKZF1 and IKZF3, thereby achieving the role of treating malignant hematological tumors (Science, 2014, 343, 301; Science, 2014, 343, 305; Nature, 2015, 523, 183). By using high-efficiency affinity magnetic nanoparticles “FG beads”, thalidomide analogues were pre-attached to the magnetic beads, and the thalidomide FG beads could catch CRBN protein (Leukemia, 2012, 26, 2326; Science, 2010, 327, 1345). In this experiment, NP-400 cell lysate was used to lyse the blood tumor Mino cells, and centrifuged to obtain a clear cell lysate and divided it into three samples evenly. Thalidomide FG beads were added to the three samples, and the Thalidomide FG beads and the cell lysate were combined and incubated at 4° C. for 6 hours. After the incubation was completed, separated the magnetic beads with a magnetic stand, resuspended the separation with NP-400 lysate, repeated 3 times to obtain magnetic beads removed excess cell lysate. […] The eluate was denatured by heating with SDS Loading Buffer, and the amount of CRBN in each sample was detected by Western blotting with CRBN antibody (Proteintech).

A further assay has as its system Mino cells. The assay can be described thus: Effect of the compound on the proliferation of Mino cells (MTS). The class given is cell-based. Particulars: Homo sapiens, 72 h, 3 days, read-out: Inhibitory activity (IC50). As for the experimental part: Mino cells were cultured with 1640 plus […] and collected. The cell concentration was diluted according to the action time of 3 days, and 90 ul cell suspension was added to each well of the 96-well cell plate to make the cell count to be 8000. 10 ul of DMSO with a final concentration of 0.2% was added to the control cell wells. The compound was diluted 5-fold with the 10 mM stock solution, and 10 ul was also added to the compound cell wells (the final concentration of DMSO was 0.2%). The cells were placed in a 37° C., […] incubator and incubated for 3 days. After preparing the reaction solution according to the MTS kit (Promega, G5430), 20 μL was added to each well, incubated in a 37° C., 5% CO2 incubator for 3-4 h. Read the 490 nm absorbance value with a microtiter plate, and used the 690 nm absorbance value as the background value and OD490-OD690 as the final initial data. The formula for calculating the inhibition rate of the compound was: inhibition rate=(OD DMSO-ODcompound)/(ODDMSO-Oblank)×100%. The compound's proliferation inhibition IC50 was fitted by Graph Pad Prism 5.0. The experiment was repeated three times, and three parallel experiments were used to calculate the average and standard deviation each time.

The test system of assay [1] is Colorectal cancer cells HCT-116. Description: Proliferation of other tumor cells, HCT-116 (WST-8). The class given is cell-based. Particulars: Homo sapiens, 96 h, HCT-116 cells, 4 days, read-out: Inhibitory activity on proliferation, HCT-116 (IC50). As for the experimental part:
(§2) The human triple negative breast cancer cells MDA-MB-468 and MDA-MB-231 used in this experiment were purchased from the Shanghai Cell Bank, in which L-15 medium added with 10% fetal bovine serum (FBS) and 1% double antibody was used. At 37° C., MDA-MB-468 and MDA-MB-231 cells were cultured in an incubator without CO2. Colorectal cancer cells HCT-116 were cultured in McCOY's 5A medium with 1% double antibody and 10% fetal bovine serum (FBS); prostate cancer cells DU145 were cultured in MEM medium with 1% double antibody and 10% fetal bovine serum (FBS); prostate cancer cells PC-3 were cultured in F-12 K medium with 1% double antibody and 10% fetal bovine serum (FBS); grew at 37° C., 5% CO2.
(§3) In the cell activity test experiment, 90 μL cell suspension with appropriate concentration was added to a 96-well cell culture plate according to the cell growth, each compound to be tested was gradient diluted with the corresponding medium, 10 μL diluted compound was added to 90 μL cells, and then incubated at 37° C. for 4 days. Cell proliferation was analyzed by WST-8, which could be reduced by lactate dehydrogenase in the cells to a yellow formazan. 10 μL of WST-8 reagent (DOJINDO) was added to the cells and reacted for more than 1 hour at 37° C., DMSO-treated cells were used as […]. The absorption value of 490 nm was read by enzyme-labeled plate, and the absorption value of 690 nm was taken as the background value, and OD490-OD690 was taken as the final original data, and the data was processed by GraphPad Prism6 software. The formula for calculating the inhibition rate of the compound was: inhibition rate=(ODDMSO−ODcompound)/(ODDMSO−Oblank)×100%. The compound's proliferation inhibition IC50 was fitted by Graph Pad Prism 5.0. The experiment was repeated three times, and three parallel experiments were used to calculate the average and standard deviation each time. The cell viability test results were shown in Table 4: A means cell viability IC50<1 μM, B means cell viability 1 μM≤IC50≤20 μM, C means cell viability IC50>20 μM, NT means not tested.

Assay [2] has as its system triple negative breast cancer cells MDA-MB-231. The assay can be described thus: Proliferation of other tumor cells, MDA-MB-231 (WST-8). The class given is cell-based. The note with it: Homo sapiens, 96 h, MDA-MB-231 cells, 4 days, read-out: Inhibitory activity on proliferation, MDA-MB-231 (IC50). How it is done:
as §2, §3
On the technique in general: Tetrazolium assays rely on reduction of a dye to a coloured formazan, in cell work by metabolically active cells.

For assay [3], the system named is prostate cancer cells DU145. The assay can be described thus: Proliferation of other tumor cells, DU145 (WST-8). It counts as cell-based. The note with it: Homo sapiens, DU-145, 96 h, 4 days, read-out: Inhibitory activity on proliferation, DU145 (IC50). How it is done: as §2, §3
Assay [4] deals with prostate cancer cells PC-3. Description: Proliferation of other tumor cells, PC-3 (WST-8). It counts as cell-based. Particulars: Homo sapiens, 96 h, PC-3 cells, 4 days, read-out: Inhibitory activity on proliferation, PC-3 (IC50). How it is done: as §2, §3

Broadly, the inhibition is how much of the control response was suppressed.

Bounds are passed on as bounds.

T1 sequence (Q96SW2 whole entry): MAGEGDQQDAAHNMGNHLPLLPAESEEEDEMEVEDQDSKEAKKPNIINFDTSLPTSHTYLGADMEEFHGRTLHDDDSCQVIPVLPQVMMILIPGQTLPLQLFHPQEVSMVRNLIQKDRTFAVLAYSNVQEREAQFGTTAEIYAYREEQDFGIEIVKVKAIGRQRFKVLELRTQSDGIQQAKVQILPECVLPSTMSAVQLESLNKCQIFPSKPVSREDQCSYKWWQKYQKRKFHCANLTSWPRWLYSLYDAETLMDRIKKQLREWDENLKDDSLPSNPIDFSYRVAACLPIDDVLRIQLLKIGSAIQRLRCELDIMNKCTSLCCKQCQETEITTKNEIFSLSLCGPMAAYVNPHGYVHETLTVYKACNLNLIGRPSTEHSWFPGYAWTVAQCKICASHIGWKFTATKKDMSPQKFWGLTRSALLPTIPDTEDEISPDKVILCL

In the case of `O=C1CCC(N2Cc3c(OCc4cn(-c5ccc(OC(F)(F)F)cc5)nn4)cccc3C2=O)C(=O)N1` (stereo not drawn) [CCC-135 (compound 17)], the inhibition at 0.01 µM in the assay with TNF-α is over 50%. In addition, the “Increase multiple of IL-2 Expression” value with IL-2 is over 3. Moreover, the “Increase multiple of IFNγ expression” value in the assay on IFNγ is over 1.5.
Take `O=C1CCC(N2Cc3c(OCc4cn(-c5ccc(OC(F)(F)F)cc5)nn4)cccc3C2=O)C(=O)N1` (stereo not drawn) [Compound 17]: the IC50 with MM.1S cells and with Mino cells was under 0.15 µM each time. Besides, the “Elution of CRBN from thalidomide FG beads” value on CRBN is “can elute CRBN from the magnetic beads bound to thalidomide”.
On to `O=C1CCC(N2Cc3c(OCc4cnc(-c5ccc(OC(F)(F)F)cc5)o4)cccc3C2=O)C(=O)N1` (stereo not drawn) [Compound 45, 3-(1-oxo-4-((2-(4-trifluoromethoxyphenyl)oxazol-5-)methoxy)isoindolin-2-) piperidine-2,6-dione], for which the IC50 in the assay on MM.1S cells is under 0.15 µM; in assay [1], 1 to 20 µM; in assay [2], over 20 µM; with Mino cells, under 0.15 µM; in [3], 1 to 20 µM; in assay [4], 1 to 20 µM.

The values are drawn from patent US20220041578A1, “ISOINDOLINE COMPOUND, AND PREPARATION METHOD, PHARMACEUTICAL COMPOSITION, AND APPLICATION OF ISOINDOLINE COMPOUND” (Shanghai Institute of Meteria Medica, Chinese Academy of …, priority 2018, published 2022).
